Data taken from US11707474B2, “Methods for treating acute myeloid leukemia and related conditions” (GlycoMimetics, Inc., priority 2018, dated 2023).

Key:
MLL-AF9 leukemic cells = experiment: Surviving LSC after high dose cytarabine, limiting dilution transplantation; assay type: in vivo, mice; conditions: with high dose cytarabine (2 x 900 mg/kg)
Method: Wild-type mice were transplanted with MLL-AF9 leukemic cells and following engraftment, treated with high dose cytarabine (2 doses of 900 mg/kg at a 12-hour interval (1800 mg/kg total)) alone or in combination with a compound of Formula (I). Bone-marrow cells were harvested 24 hours after treatment and the surviving functional LSCs were quantified by limiting dilution transplantation assays in irradiated wild-type syngeneic recipients. The proportion of recipients who developed leukemia was used to calculate the number of surviving LSC by Poisson's distribution.

U937 = experiment: Systemic U-937 AML mouse survival model; assay type: in vivo, NOD/SCID mouse
Method: A compound of Formula (I) in combination with cytarabine/DNR chemotherapy was evaluated in the systemic U-937 AML NOD/SCID mouse survival model.
The U937 cell line was chosen because the cells express the E-selectin ligand and react with antibody HECA-452. After engraftment, mice were randomized into 4 groups (n=10/group) and treatment was initiated. The groups included a saline control group; a group administered the compound of Formula (I) at 40 mg/kg BID (i.e., 80 mg/kg per day) for 9 days, a group administered cytarabine at 300 mg/kg QD (i.e., 300 mg/kg per day) for 3 days and a single dose of DNR at 3 mg/kg; and a group administered the combined regimen of the compound of Formula (I) and chemotherapy (cytarabine and DNR).

KG1 cells = experiment: Systemic KG1 AML model survival; assay type: in vivo, NSG female mice
Method: The potential relevance of these in vitro observations was assessed in NSG female mice with pre-existing disseminated KG1 cells and treated with a compound of Formula (I) (40 mg/kg, IP, QD for 14 days), 5-azacytidine (5 mg/kg, IP, administered on days 7, 10, 13, 16, and 19 (5 doses total)), or the combination of both compounds. Under the conditions of the assay, the median survival time of mice treated with saline alone or a compound of Formula (I) was 69.5 and 69 days, respectively (FIG. 9). Administration of a compound of Formula (I) with 5-azacytidine increased median survival time beyond that obtained with 5-azacytidine treatment alone (>104 days versus 88 days; P=0.014, FIG. 9).

`CC[C@@H]1CC(C(=O)NCCNC(=O)CCOCCOCCOCCOCCOCCOCCOCCOCCOCCOCCOCCOC)C[C@@H](O[C@@H]2O[C@@H](CO)[C@H](O)C(O[C@@H](CC3CCCCC3)C(=O)O)C2NC(C)=O)C1OC1O[C@@H](C)C(O)[C@H](O)[C@@H]1O` (stereo partly drawn) [compound of Formula (I)] was tested, and the “increase of sensitivity of LSC to cytarabine treatment” value (MLL-AF9 leukemic cells) was “approximately 20 fold”, the survival (U937; 40 mg/kg BID 9 days alone) was “does not extend survival beyond saline control” and the “median survival time (MST)” value (U937; 40 mg/kg BID 9 days combined with cytarabine/DNR) was “greater than 120 days”. For the same compound, the “animals surviving to the end of the study” value (U937; 40 mg/kg BID 9 days combined with cytarabine/DNR, n=10/group) was “five”, the median survival time (KG1 cells; 40 mg/kg IP QD 14 days alone) was 69 days and the median survival time (KG1 cells; 40 mg/kg IP QD 14 days with 5-azacytidine) was > 104 days.
